Laboratory results taken from US6762207B1, “(E)-styryl sulfone anticancer agents” (priority 1999, dated 2004).

How the values were obtained:
Assay type in all cases: cell-based
Set-up in all cases: dose or concentration left out as unconfirmed
Details in all cases: 96 hours
[1] = system: colorectal carcinoma cell line DLD-1; experiment: Trypan blue exclusion viability assay, DLD-1
Method: (§1) MCF-7 is estrogen-responsive, while BT-20 is an estrogen-unresponsive cell line. NIH/3T3 and HFL are normal murine and human fibroblasts, respectively. MCF-7, BT-20, DLD-1 and H157 were grown in Dulbecco's modified Eagle's medium (DMEM) containing 10% fetal bovine serum supplemented with penicillin and streptomycin. DU145 was cultured in RPMI with 10% fetal bovine serum containing penicillin and streptomycin. […] All cell cultures were maintained at 37° C. in a humidified atmosphere of 5% CO2. Cells were treated with test compound at 2.5 mM concentration and cell viability was determined after 96 hours by the Trypan blue exclusion method.

[2] = system: breast tumor cell line MCF-7; experiment: Trypan blue exclusion viability assay, MCF-7
Method: as §1

[3] = system: prostate tumor cell line DU-145; experiment: Trypan blue exclusion viability assay, DU145
Method: as §1

[4] = system: non-small cell lung carcinoma cell line H157; experiment: Trypan blue exclusion viability assay, H157
Method: as §1

[5] = system: breast tumor cell line BT-20; experiment: Trypan blue exclusion viability assay, BT20
Method: as §1

Compound	Cell death, DLD-1 [1]	Cell death, MCF-7 [2]	Cell death, DU145 [3]	Cell death, H157 [4]	Cell death, BT20 [5]
O=S(=O)(/C=C/c1cccc(Cl)c1Cl)Cc1ccc(Cl)cc1 [Example 18, (E)-2,3-Dichlorostyryl-4-chlorobenzylsulfone]	+ (5-10%: = +)	+ (5-10%: = +)	+ (5-10%: = +)	–	–
O=S(=O)(/C=C/c1ccc(Cl)c(Cl)c1)Cc1ccc(Cl)cc1 [Example 17, (E)-3,4-Dichlorostyryl-4-chlorobenzylsulfone]	+ (5-10%: = +)	+ (5-10%: = +)	+ (5-10%: = +)	–	–
N#Cc1ccc(CS(=O)(=O)/C=C/c2ccc(Br)cc2)cc1 [Example 12, (E)-4-Bromostyryl-4-cyanobenzylsulfone]	− (0% = −)	− (0% = −)	− (0% = −)	+ (5-10%: = +)	–
O=S(=O)(/C=C/c1ccc(Cl)cc1)Cc1ccc(C(F)(F)F)cc1 [Example 2, (E)-4-Chlorostyryl-4-trifluoromethylbenzylsulfone]	++ (10-15% = ++)	++ (10-15% = ++)	++ (10-15% = ++)	–	++ (10-15% = ++)
O=S(=O)(/C=C/c1ccc(F)c(Cl)c1)Cc1ccc(Cl)cc1 [Example 14, (E)-3-Chloro-4-fluorostyryl-4-chlorobenzylsulfone]	− (0% = −)	− (0% = −)	− (0% = −)	− (0% = −)	–
N#Cc1ccc(CS(=O)(=O)/C=C/c2ccc(Cl)cc2)cc1 [Example 11, (E)-4-Chlorostyryl-4-cyanobenzylsulfone]	–	+ (5-10%: = +)	+ (5-10%: = +)	+ (5-10%: = +)	–
O=S(=O)(/C=C/c1ccc(Cl)cc1Cl)Cc1ccc(Cl)cc1 [Example 16, (E)-2,4-Dichlorostyryl-4-chlorobenzylsulfone]	++++ (50-60% = ++++)	++++ (50-60% = ++++)	+++ (40-50% = +++)	–	–
O=S(=O)(/C=C/c1ccc(F)c(F)c1)Cc1ccc(Cl)cc1 [Example 13, (E)-3,4-Difluorostyryl-4-chlorobenzylsulfone]	− (0% = −)	− (0% = −)	− (0% = −)	− (0% = −)	–
O=S(=O)(/C=C/c1ccc(Cl)cc1)Cc1ccc(Cl)cc1Cl [Example 5, (E)-4-Chlorostyryl-2,4-dichlorobenzylsulfone]	++ (10-15% = ++)	+++ (40-50% = +++)	+ (5-10%: = +)	++ (10-15% = ++)	–
N#Cc1ccc(CS(=O)(=O)/C=C/c2ccc(F)cc2)cc1 [Example 10, (E)-4-Fluorostyryl-4-cyanobenzylsulfone]	–	+++ (40-50% = +++)	++ (10-15% = ++)	+++ (40-50% = +++)	–
O=S(=O)(/C=C/c1ccc(F)cc1)Cc1ccc(Cl)c(Cl)c1 [Example 6, (E)-4-Fluorostyryl-3,4-dichlorobenzylsulfone]	–	++++ (50-60% = ++++)	++++ (50-60% = ++++)	–	++++ (50-60% = ++++)
O=S(=O)(/C=C/c1ccc(F)cc1Cl)Cc1ccc(Cl)cc1 [Example 15, (E)-2-Chloro-4-fluorostyryl-4-chlorobenzylsulfone]	+++++ (Above 80% = +++++)	+++++ (Above 80% = +++++)	+++++ (Above 80% = +++++)	+++++ (Above 80% = +++++)	–
O=[N+]([O-])c1ccccc1/C=C/S(=O)(=O)Cc1ccc(Cl)cc1Cl [Example 44, (E)-2-nitrostyryl-2,4-dichlorobenzylsulfone]	+ (5-10%: = +)	–	+ (5-10%: = +)	+ (5-10%: = +)	+ (5-10%: = +)
